Data: US8765684B2, “Solid materials of {[(2S,5R,8S,11S)-5-benzyl-11-(3-guanidino-propyl)-8-isopropyl-7-methyl-3,6,9,12,15-pentaoxo-1,4,7,10,13-pentaaza-cyclopentadec-2-yl]-acetic acid} and methods for obtaining them” (Merck Patent GmbH, priority 2009, dated 2014)

Key:
[1] = type: physicochemical; conditions: 25° C., listed as S2
From the text: Preferably, the anhydrates or ansolvates according to the invention and especially the crystalline form A1 can be characterised, alternatively or additionally, by dynamic vapour sorption experiments. The results can be obtained by standard techniques as described in Rolf Hilfiker, ‘Polymorphism in the Pharmaceutical Industry’, Wiley-VCH. Weinheim 2006 (Chapter 9: Water Vapour Sorption, and references therein). […] Eur. criteria.
Preferably, the tetrasolvates according to the invention, more preferably the tetrahydrates according to the invention and especially the crystalline form S3 can be characterised, alternatively or additionally, by dynamic vapour sorption experiments. The results can be obtained by standard techniques as described in Rolf Hilfiker, ‘Polymorphism in the Pharmaceutical Industry’, Wiley-VCH. Weinheim 2006 (Chapter 9: Water Vapour Sorption, and references therein).
Dynamic Vapor Sorption measurements are preferably obtained on a SMS DVS Intrinsic system. The results are preferably obtained by standard techniques as described by Rolf Hilfiker “Polymorphism in the Pharmaceutical Industry” Wiley-VCH Weinheim 2006 (Chapter 9: Water Vapour Sorption, and references therein.) Approx. 2-10 mg of samples are preferably weighed into an Aluminium 100 μL pan and placed in the sample incubator of the DVS instrument with microbalance. A nitrogen overall flow rate of 200 mL/min (combined dry and humid stream) is preferably used for humidification. Water vapor sorption isotherms are preferably acquired at 25° C. in the range 0% relative humidity to 98% relative humidity mostly with 10% relative humidity steps. For all relative humidity steps, an equilibrium condition of dm/dt≦0.0005 wt %/min are preferably used, with a minimum relative humidity step time of 10 minutes and a maximum relative humidity step time of 360 minutes which is preferably used as a timeout if the dm/dt criterai mentioned above is not been reached.
A SMS DVS I system is used for the dynamic vapour experiments regarding crystalline form S3. The results have been obtained by standard techniques as described in Rolf Hilfiker, ‘Polymorphism in the Pharmaceutical Industry’, Wiley-VCH. Weinheim 2006 (Chapter 9: Water Vapour Sorption, and references therein). […] During the water adsorption cycle there is shown an assembly of water molecules (ca. 10 wt%) in the lattice at elevated rh. In the second desorption cycle there is a loss of this amount of water.
(§1) A SMS DVS Intrinsic is used for the dynamic vapour experiments. The results are obtained by standard techniques as described in Rolf Hilfiker, ‘Polymorphism in the Pharmaceutical Industry’, Wiley-VCH. Weinheim 2006 (Chapter 9: Water Vapour Sorption, and references therein). […] Upon water vapour adsorption, an assembly of water molecules in the lattice is observed, with a maximum weight gain of approx. 8 wt % at elevated rh. In the second desorption cycle a total mass loss of approx. 9.9 wt % is observed. For a Cilengitide Dihydrate Di-Methanolate, the calculated Methanol content equals 9.3 wt %.
as §1, with “6.4” for “8”, “9.2” for “9.9”, “Di-Ethanolate,” for “Di-Methanolate,”, “Ethanol” for “Methanol”, “12.5” for “9.3”

[2] = type: physicochemical
Protocol: In the respective dynamic vapor sorption experiments discussed in more detail herein using ethanol vapor at 98% relative saturation for the Dihydrate-diethanolate/crystalline form S2 at 25° C. starting with the tetrahydrate a mass gain of 17% has been obtained. This is in good agreement with the above shown results for the tetraethanolate (calculated 117.0%, i.e. 17.0% of mass gain). Preferably, the tetrasolvates according to the invention, more preferably the Dihydrate-diethanolate, the Dihydrate-ethanolate, the Dihydrate-monoethanolate, the Diethanolate and/or the desolvates thereof, and especially the crystalline form S2 can be characterised, alternatively or additionally, by dynamic vapour experiments using water vapour and/or methanol vapour. The results can be obtained by standard techniques as described in Rolf Hilfiker, ‘Polymorphism in the Pharmaceutical Industry’, Wiley-VCH. Weinheim 2006 (Chapter 9: Water Vapour Sorption, and references therein). […] Upon water vapour adsorption, an assembly of water molecules in the lattice is observed, with a maximum weight gain of approx. 6.4 wt % at elevated rh. In the second desorption cycle a total mass loss of approx. 9.2 wt % is observed. For a Dihydrate Di-Ethanolate of the compound of formula I, the calculated Ethanol content equals 12.5 wt %. […] Thus, crystalline form S2 is a crystalline Ethanol solvate form or a mixed water/ethanol solvate form, preferably selected from the Dihydrate-ethanolate, the Dihydrate-monoethanolate, the Diethanolate and/or the desolvates thereof, which can be obtained e.g. via Ethanol Vapour Sorption, preferably via Ethanol Vapour Sorption starting with a hydrate structure, such as the hydrates according to the invention and especially the tetrahydrate according to the invention, i.e. crystalline form S3. From the Ethanol Vapour Sorption curve as shown in FIG. 21 and as discussed above, it can be seen that at elevated Ethanol partial pressure, approx. 17 wt % Ethanol are taken up by the sample.

For “cyclo-(Arg-Gly-Asp-DPhe-NMe-Val) [crystalline form S2]”, the “Maximum weight gain upon water vapour adsorption” value ([1]; elevated rh) was “approx. 6.4 wt %”, the “Mass loss in the first desorption cycle” value ([1]; water vapour sorption) was “approx. 6.5 wt %” and the “Total mass loss in the second desorption cycle” value ([1]; water vapour sorption) was “approx. 9.2 wt %”. For the same substance, the “Thermodynamic stability of the form” value [2] was “thermodynamically stable form”, the “Ethanol taken up by the sample” value ([2]; elevated Ethanol partial pressure, starting with a hydrate structure) was “approx. 17 wt %” and the Mass gain ([2]; ethanol vapor at 98% relative saturation, 25° C., starting with the tetrahydrate) was 17%.
